In patent EP4721737A1, “USE OF PHARMACEUTICAL COMPOSITION COMPRISING COMPOUND HAVING BIS(AZANYLYLIDENE) SULFONYL STRUCTURE FOR TREATING ANEMIA-RELATED DISEASES” (Scinnohub Pharmaceutical Co., Ltd., priority 2023, dated 2024):
Where two headings read alike, the source gives them in different places.

What was measured:
[1] = biological target: T1, PKR in ex vivo red blood cells from healthy individuals (Homo sapiens, UniProt P30613); assay: ex vivo pyruvate kinase (PKR) activity experiment, red blood cells of healthy individuals; type: cell-based; settings: 3 hours co-cultivation
T1 construct: endogenous in cells; host or cells: human red blood cells isolated from fresh peripheral blood of healthy individuals
How it was run: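 Washed, Percoll-purified human RBCs at 1 × 10^7 cells/mL were exposed to compound (final 1–3000 nM, 1% DMSO) for 3 h at 37°C, then lysed. PKR activity in lysate was followed kinetically by fluorescence at 540/590 nm over 1 h. Slope versus 1% DMSO control gave % activation; AC50 from variable-slope fit.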

[2] = pharmacokinetic properties test in mice; type: in vivo; settings: ICR mouse, single, plasma; for MRT last: read-out: MRT0-t; for Vd: read-out: Vss
Method: The pharmacokinetic properties of the compounds of the present disclosure in different animal species were investigated by measuring plasma drug concentrations following intravenous and oral gavage in mouse, rat, and dog.
i. The compounds were weighed, then the solvent (5% DMSO + 10% Solutol + 85% saline) was added to prepare the administration solution. ii. On the day before the experiment, animals in the oral administration group were fasted overnight (10-14 hours) and fed 4 hours after administration. iii. At each time point after administration, approximately 30 µL of venous blood was collected from an appropriate location in each group of animals and placed in a sodium heparin tube. Blood samples were placed on ice and centrifuged within 1 hour to separate plasma (centrifugation conditions: 6800 g, 6 min, 2-8°C). Plasma samples were stored at -80°C until analysis.
b) An LC-MS/MS analytical method was developed for measuring compound concentrations in mouse, rat, and dog plasma. This method was used to determine compound concentrations in biological samples obtained in this assay.
Pharmacokinetic parameters were calculated using Phoenix WinNonlin 7.0 using plasma drug concentration data at different time points.

T1 sequence (P30613 whole entry): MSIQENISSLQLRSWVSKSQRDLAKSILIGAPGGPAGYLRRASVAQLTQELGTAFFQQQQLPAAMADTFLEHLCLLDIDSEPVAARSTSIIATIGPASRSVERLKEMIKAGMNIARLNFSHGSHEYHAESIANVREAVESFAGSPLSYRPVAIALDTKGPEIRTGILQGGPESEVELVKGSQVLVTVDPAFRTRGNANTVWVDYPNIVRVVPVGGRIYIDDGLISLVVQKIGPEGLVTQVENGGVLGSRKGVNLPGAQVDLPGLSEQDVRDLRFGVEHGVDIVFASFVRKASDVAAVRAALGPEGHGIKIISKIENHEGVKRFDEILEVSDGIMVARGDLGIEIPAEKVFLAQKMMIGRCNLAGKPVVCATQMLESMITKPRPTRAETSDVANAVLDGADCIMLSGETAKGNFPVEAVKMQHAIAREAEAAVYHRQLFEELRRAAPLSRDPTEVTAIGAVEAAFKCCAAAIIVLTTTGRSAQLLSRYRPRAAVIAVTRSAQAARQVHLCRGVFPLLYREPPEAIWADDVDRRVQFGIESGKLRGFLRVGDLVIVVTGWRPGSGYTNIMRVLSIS

Row | SMILES | AC50 [1] | AUC(0-t) ([2]; 1 mg/kg intravenous injection) | Cmax ([2]; 1 mg/kg intravenous injection) | Tmax ([2]; 1 mg/kg intravenous injection) | clearance ([2]; 1 mg/kg intravenous injection) | half-life ([2]; 1 mg/kg intravenous injection) | MRT last ([2]; 1 mg/kg intravenous injection) | Vd ([2]; 1 mg/kg intravenous injection) | AUC(0-t) ([2]; 10 mg/kg oral gavage, fasted) | Cmax ([2]; 10 mg/kg oral gavage, fasted) | Tmax ([2]; 10 mg/kg oral gavage, fasted) | half-life ([2]; 10 mg/kg oral gavage, fasted) | MRT last ([2]; 10 mg/kg oral gavage, fasted)
1 | N#Cc1ccc(S(=O)(=O)N2CC(=C3CN(C(=O)[C@H](CO)c4ccccc4)C3)C2)cc1 [Compound 65, (S)-4-(1'-(3-hydroxy-2-phenylpropionyl)-1',4'-dihydro-2H,2'H-[3,3'-diazetidinylidene]-1(4H)-ylsulfonyl)benzonitrile] | < 100 nM | 679 ng·h/mL | 945 ng/mL | 0.08 h | 25.1 mL/min/kg | 1.3 h | 0.91 h | 1.5 L/kg | 7880 ng·h/mL | 4230 ng/mL | 0.33 h | 1.75 h | 1.89 h
2 | O=C([C@H](CO)c1ccc(F)cc1F)N1CC(=C2CN(S(=O)(=O)c3ccccn3)C2)C1 [Compound 83, (S)-2-(2,4-difluorophenyl)-3-hydroxy-1-(1'-(pyridin-2-ylsulfonyl)-1',4'-dihydro-2H,2'H-[3,3'-diazetidinylidene]-1(4H)-yl)propan-1-one] | – | 260 ng·h/mL | 570 ng/mL | 0.08 h | 62.9 mL/min/kg | 2.44 h | 1.33 h | 6.3 L/kg | 2010 ng·h/mL | 1440 ng/mL | 0.25 h | 2.03 h | 1.71 h
